{"source": "patent US20180311347A1", "about": "“POLYMORPHISMS IN CACHEXIA PREDICT CLINICAL OUTCOMES OF COLORECTAL CANCER PATIENTS RECEIVING IRINOTECAN AND BEVACIZUMAB” (University of Southern California, priority 2017, published 2018)", "origin": "cited, not measured here", "system": "type I activin like receptor", "data": [{"compound": "NC(=O)c1ccc(-c2nc(-c3ccc4c(c3)OCO4)c(-c3ccccn3)[nH]2)cc1", "note": "[SB431542]", "values": [{"measurement": "VEGF expression", "result": "decrease VEGF expression"}, {"measurement": "angiogenesis", "result": "inhibit angiogenesis"}]}]}
